According to US11708360B2, “N-substituted-dioxocyclobutenylamino-3-hydroxy-picolinamides useful as CCR6 inhibitors” (Pfizer Inc., priority 2018, dated 2023):
pIC50: −log10 of the molar value.

What was measured:
CXCR2 = target: T1, CXCR2 (Homo sapiens, UniProt P25025); experiment: Human Neutrophil Chemotaxis Assay; assay type: cell-based; parameters: Human neutrophils were purified from freshly drawn human whole blood; endogenous in cells; host or cells: primary human neutrophils from fresh whole blood; settings: Table 12; human neutrophils migrating towards the CXCR2 ligand GROα; read-out: IC50
T1 sequence (P25025 1-360): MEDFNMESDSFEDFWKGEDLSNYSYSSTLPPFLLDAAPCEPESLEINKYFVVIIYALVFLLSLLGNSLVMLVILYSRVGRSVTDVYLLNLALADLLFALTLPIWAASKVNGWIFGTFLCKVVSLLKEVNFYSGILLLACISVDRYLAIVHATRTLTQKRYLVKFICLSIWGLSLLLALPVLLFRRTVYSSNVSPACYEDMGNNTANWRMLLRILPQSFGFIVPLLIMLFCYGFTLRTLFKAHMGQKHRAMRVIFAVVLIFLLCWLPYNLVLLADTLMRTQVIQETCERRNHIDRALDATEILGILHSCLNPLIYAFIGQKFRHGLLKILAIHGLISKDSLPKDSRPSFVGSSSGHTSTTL
Description: After 30 min, the labeled neutrophils were washed twice in chemotaxis buffer, resuspended as before and used immediately. For the assay, test compounds were tested in a dose-response format to determine IC50. Labeled neutrophils (50 μL) were pre-incubated with diluted test compound (50 μL) for 30 min in a 96-well plate (Greiner). Next, 100 μL of diluted compound was mixed with 100 μL of GROα (Peprotech #300-11, 2 nM) in the bottom portion of the chemotaxis chamber. The top portion (insert) of the chemotaxis system containing the FluoroBlok porous membrane was then assembled together. 50 μL of the pre-incubated neutrophils were added to the FluoroBlok insert (top portion) and chemotaxis measured by the neutrophils ability to migrate through the membrane towards the specific CXCR2 ligand, GROα.
IC50 values for compounds of the present invention (Table 12) were determined by the non-linear regression analysis of dose response curves.

CCR6 = target: T2, CCR6 (Homo sapiens, UniProt P51684); experiment: CCR6+ T Cell Chemotaxis Assay; assay type: cell-based; settings: for pIC50: Table 11, human CD4+CCR6+CXCR3- T cells, CCL20 0.5 nM in bottom chamber, 1 h at 37° C., read-out: IC50; for T Cell Chemotaxis Selectivity: Table 13, T cell chemotaxis compared to neutrophil chemotaxis, NS = not selective for T cell chemotaxis compared to neutrophil chemotaxis
T2 construct: Human CD4+CCR6+CXCR3-T cells were isolated from leukopak from healthy donors; endogenous in cells
T2 sequence (P51684 1-374): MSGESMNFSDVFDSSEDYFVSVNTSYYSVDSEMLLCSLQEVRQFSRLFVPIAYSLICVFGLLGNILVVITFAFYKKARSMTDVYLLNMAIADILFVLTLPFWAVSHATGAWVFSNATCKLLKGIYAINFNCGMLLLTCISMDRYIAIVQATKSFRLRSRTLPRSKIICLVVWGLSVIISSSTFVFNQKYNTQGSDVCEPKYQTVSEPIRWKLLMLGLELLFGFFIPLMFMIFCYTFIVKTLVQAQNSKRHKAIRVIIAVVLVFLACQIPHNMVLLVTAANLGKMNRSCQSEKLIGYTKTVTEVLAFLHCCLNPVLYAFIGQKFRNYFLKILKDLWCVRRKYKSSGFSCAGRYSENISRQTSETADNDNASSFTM
Source text: Human CD4+CCR6+CXCR3-T cells were isolated from leukopak from healthy donors using EasySep™ Human Th17 Cell Enrichment Kit. […] Day 4 post activation, Dynabeads were removed from the culture. The activated T cells were maintained at 1-2×10^6 cells/mL for 15 days by feeding fresh growth media when needed.
For IC50 determination, the top and bottom of the chemotaxis chamber contained the same concentration of compound. DMSO was kept constant at 0.1% (v/v) in all wells. The final concentration of CCL20 (Peprotech 300-29A) in the bottom chamber is 0.5 nM. The fully assembled chemotaxis plate was placed in a cell culture incubator at 37° C., 5% CO2 for 1 h. After incubation, the top filter was removed, followed by a quick freeze of the bottom chamber at −80° C. for 1 h. The migrated cells in the bottom chamber were stained with CyQUANT dye (Life Technologies, C7026) for cell number determination.
IC50 values for compounds of the present invention (Table 11) were determined by the non-linear regression analysis of dose response curves.

pIC50 (CXCR2)	pIC50 (CCR6)	T Cell Chemotaxis Selectivity (CCR6)	SMILES
6.48	8.27	60	COc1cn(C)nc1[C@H](Nc1c(Nc2ccnc(C(=O)N(C)C)c2O)c(=O)c1=O)C(C)(C)C [Example 13, (R)-3-Hydroxy-4-((2-((1-(4-methoxy-1-methyl-1H-pyrazol-3-yl)-2,2-dimethylpropyl)amino)-3,4-dioxocyclobut-1-en-1-yl)amino)-N,N-dimethylpicolinamide]
6.57	7.90	22	COc1cn(C)nc1[C@H](Nc1c(Nc2ccnc(C(=O)N(C)C(C)C)c2O)c(=O)c1=O)C(C)(C)C [Example 14, (R)-3-Hydroxy-N-isopropyl-4-((2-((1-(4-methoxy-1-methyl-1H-pyrazol-3-yl)-2,2-dimethylpropyl)amino)-3,4-dioxocyclobut-1-en-1-yl)amino)-N-methylpicolinamide]
6.13	7.97	69	CN(C)C(=O)c1nccc(Nc2c(N[C@@H](c3nn(C)cc3OC(F)F)C3(C)CCCC3)c(=O)c2=O)c1O [Example 15, (R)-4-((2-(((4-(Difluoromethoxy)-1-methyl-1H-pyrazol-3-yl)(1-methylcyclopentyl)methyl)amino)-3,4-dioxocyclobut-1-en-1-yl)amino)-3-hydroxy-N,N-dimethylpicolinamide]
5.36	7.38	104	CN(C)C(=O)c1nccc(Nc2c(N[C@@H](c3nn(C)cc3C#N)C3(C)CCCC3)c(=O)c2=O)c1O [Example 16, (R)-4-((2-(((4-Cyano-1-methyl-1H-pyrazol-3-yl)(1-methylcyclopentyl)methyl)amino)-3,4-dioxocyclobut-1-en-1-yl)amino)-3-hydroxy-N,N-dimethylpicolinamide]
6.00	8.48	306	CCc1cn(C)nc1[C@H](Nc1c(Nc2ccnc(C(=O)N(C)C)c2O)c(=O)c1=O)C1(C)CCCC1 [Example 18, (R)-4-((2-(((4-Ethyl-1-methyl-1H-pyrazol-3-yl)(1-methylcyclopentyl)methyl)amino)-3,4-dioxocyclobut-1-en-1-yl)amino)-3-hydroxy-N,N-dimethylpicolinamide]
6.71	7.15	3	Cc1nc([C@H](Nc2c(Nc3ccnc(C(=O)N(C)C)c3O)c(=O)c2=O)C2(C)CC2)c(C)s1 [Example 19, (R)-4-((2-(((2,5-Dimethylthiazol-4-yl)(1-methylcyclopropyl)-methyl)amino)-3,4-dioxocyclobut-1-en-1-yl)amino)-3-hydroxy-N,N-dimethylpicolinamide]
6.78	6.57	–	Cc1cn(C)nc1[C@H](Nc1c(Nc2ccnc(C(=O)N(C)C)c2O)c(=O)c1=O)C1(C)CC1 [Example 20, (R)-4-((2-(((1,4-Dimethyl-1H-pyrazol-3-yl)(1-methylcyclopropyl)methyl)amino)-3,4-dioxocyclobut-1-en-1-yl)amino)-3-hydroxy-N,N-dimethylpicolinamide]
6.53	6.99	3	CCc1cn(C)nc1[C@H](Nc1c(Nc2ccnc(C(=O)N(C)C)c2O)c(=O)c1=O)C1(C)CC1 [Example 21, (R)-4-((2-(((4-Ethyl-1-methyl-1H-pyrazol-3-yl)(1-methylcyclopropyl)methyl)amino)-3,4-dioxocyclobut-1-en-1-yl)amino)-3-hydroxy-N,N-dimethylpicolinamide]
6.85	8.13	19	Cc1cn(C)nc1[C@H](Nc1c(Nc2ccnc(C(=O)N(C)C)c2O)c(=O)c1=O)C(C)(C)C [Example 22, (R)-4-((2-((1-(1,4-Dimethyl-1H-pyrazol-3-yl)-2,2-dimethylpropyl)amino)-3,4-dioxocyclobut-1-en-1-yl)amino)-3-hydroxy-N,N-dimethylpicolinamide]
6.61	7.78	15	Cc1cn(C)nc1[C@H](Nc1c(Nc2ccnc(C(=O)N(C)C)c2O)c(=O)c1=O)C1(C)CCC1 [Example 23, (R)-4-((2-(((1,4-Dimethyl-1H-pyrazol-3-yl)(1-methylcyclobutyl)methyl)amino)-3,4-dioxocyclobut-1-en-1-yl)amino)-3-hydroxy-N,N-dimethylpicolinamide]
6.00	8.51	325	Cc1nc([C@H](Nc2c(Nc3ccnc(C(=O)N(C)C)c3O)c(=O)c2=O)C2(C)CCC2)c(C)s1 [Example 24, (R)-4-((2-(((2,5-Dimethylthiazol-4-yl)(1-methylcyclobutyl)-methyl)amino)-3,4-dioxocyclobut-1-en-1-yl)amino)-3-hydroxy-N,N-dimethylpicolinamide]
6.45	8.92	296	Cc1nc([C@H](Nc2c(Nc3ccnc(C(=O)N(C)C)c3O)c(=O)c2=O)C(C)(C)C)c(C)s1 [Example 25, (R)-4-((2-((1-(2,5-Dimethylthiazol-4-yl)-2,2-dimethylpropyl)-amino)-3,4-dioxocyclobut-1-en-1-yl)amino)-3-hydroxy-N,N-dimethylpicolinamide]
6.85	8.48	43	CCc1cn(C)nc1[C@H](Nc1c(Nc2ccnc(C(=O)N(C)C)c2O)c(=O)c1=O)C1(C)CCC1 [Example 26, (R)-4-((2-(((4-Ethyl-1-methyl-1H-pyrazol-3-yl)(1-methylcyclobutyl)methyl)amino)-3,4-dioxocyclobut-1-en-1-yl)amino)-3-hydroxy-N,N-dimethylpicolinamide]
7.28	7.88	4	CCc1cn(C)nc1[C@H](Nc1c(Nc2ccnc(C(=O)N(C)C)c2O)c(=O)c1=O)C(C)(C)C [Example 27, (R)-4-((2-((1-(4-Ethyl-1-methyl-1H-pyrazol-3-yl)-2,2-dimethylpropyl)amino)-3,4-dioxocyclobut-1-en-1-yl)amino)-3-hydroxy-N,N-dimethylpicolinamide]
5.66	7.44	60	Cc1sc(CO)nc1[C@H](Nc1c(Nc2ccnc(C(=O)N(C)C)c2O)c(=O)c1=O)C1(C)CCCC1 [Example 28, (R)-3-Hydroxy-4-((2-(((2-(hydroxymethyl)-5-methylthiazol-4-yl)(1-methylcyclopentyl)methyl)amino)-3,4-dioxocyclobut-1-en-1-yl)amino)-N,N-dimethylpicolinamide]
5.36	7.92	367	CN(C)C(=O)c1nccc(Nc2c(N[C@@H](c3nn(C)cc3C3CC3)C3(C)CCCC3)c(=O)c2=O)c1O [Example 29, (R)-4-((2-(((4-Cyclopropyl-1-methyl-1H-pyrazol-3-yl)(1-methylcyclopentyl)methyl)amino)-3,4-dioxocyclobut-1-en-1-yl)amino)-3-hydroxy-N,N-dimethylpicolinamide]
5.39	7.02	42	CCN(C)C(=O)c1nccc(Nc2c(N[C@@H](c3nn(C)cc3C#N)C3(C)CCCC3)c(=O)c2=O)c1O [Example 30, (R)-4-((2-(((4-Cyano-1-methyl-1H-pyrazol-3-yl)(1-methylcyclopentyl)methyl)amino)-3,4-dioxocyclobut-1-en-1-yl)amino)-N-ethyl-3-hydroxy-N-methylpicolinamide]
